Entries after “also recorded” stand apart in the source; their conditions may differ.

For one data set, the system named is recombinant CCR2 protein. Put plainly: CCR2 receptor binding of nanoparticles to immobilized recombinant CCR2. Details: species or system human. The settings on record: recombinant CCR2 2 µg/mL coated; nanoparticles 4 h room temperature; fluorescence 550/620 nm. The procedure:
A sandwich-type plate-based immunoassay was developed in-house to study CCR2 receptor binding. Black opaque plates (for fluorescence studies) or clear high protein binding plates (for absorbance studies) were coated with recombinant CCR2 protein at 2 µg/mL in PBS overnight at 4 °C. Plates were washed 5 times with PBS and treated as follows: for nanoparticles binding, varying concentrations of fluorescent nanoparticles or vehicle control (see above) in PBS were added to the opaque plates and incubated for 4 h at room temperature. For peptide competition/binding studies, recombinant human CCL2 was added in clear plates at varying concentrations in PBS simultaneously with a large excess of peptides (1 mM final concentration, dissolved in dimethylformamide) and incubated for 1 h at room temperature. All plates were washed 5 times with PBS and fluorescence in opaque plates was read at 550 nm excitation and 620 nm emissions. […] Clear plates were washed and incubated with 0.1 µg/mL streptavidin-HRP. Finally, clear plates were washed and incubated with SigmaFast OPD reagent in the presence of hydrogen peroxide-urea, as per the manufacturer's instructions. After 30 min incubation period at 37 °C, the plates were read at 450 nm on a multiwell plate reader as described above. Fluorescence emission values and OD at 450 nm were plotted against concentration using a 4-parametric fit.

The next data set concerns RAW 264.7 cells. As to the kind of experiment: Gene expression analysis in LPS-stimulated RAW cells. It is filed as cell-based, mouse. The settings on record: 1 µM, 24 h, LPS 100 ng/mL; vs VTCC or vehicle. The protocol:
RAW 264.7 cells were seeded in 24-well plates at 1.0 x 10^5 per well with LPS (100 ng/mL) and allowed to attach overnight. After a quick wash with PBS, RNA was isolated from cells following the Trizol method. Next, RNA was reverse transcribed to cDNA, and amplified by the polymerase chain reaction (PCR) using reagents from cDNA synthesis kit, SYBR Green PCR Master Mix and target-specific TaqMan probes as indicated in Supplementary Table S1. Roche LightCycler 480 II was used to perform quantification analysis of gene expression using the ΔΔCT method as previously described,[13],[16].

Data set [1] deals with BMDMs. Put plainly: CCL2-induced actin polymerization in BMDMs. The data set is classed as cell-based. The settings on record: 6 h pre-treatment, 500 nM recombinant mouse CCL2; 5 µM; phalloidin staining. The protocol:
Next, cells were washed with PBS and recombinant mouse CCL2 was added to a final concentration of 500 nM. Then, cells were incubated for varying times (indicated in Figure 2G), after which they were immediately placed on ice and washed 3 times with cold PBS. Actin polymerization was then visualized following staining with phalloidin Alexa Fluor 633, according to the manufacturer's instructions.

Data set [2] relates to F4/80-positive plaque macrophages. As to the kind of experiment: Immunohistochemistry / plaque macrophage co-staining. The data set is classed as in vivo, mouse. The settings on record: mouse, in vivo. The protocol: Twenty-four hours after nanoparticle injection (see above), mice were euthanized and abdominal aortas were isolated and embedded in Optimal Cutting Temperature compound. After cryotome-sectioning, resulting in 20-30 slides per mouse, 15 slides were sent to Ohio State laser capture microdissection core lab for capture and analysis. The rest of the slides were processed as follows: after fixation in methanol:acetone 50:50 at -20 °C, slides were hydrated in PBS, blocked for 30 min in fish serum (Aqua Block) and stained for 1 h with primary antibodies against F4/80 followed washing and staining with HRP-conjugated secondary antibody for 30 min. DAB peroxidase kit was then used as per manufacturer's instructions followed by mounting. DAB and antibody staining (but not wash steps) was omitted in slides designated for nanoparticle fluorescence visualization. Nanoparticles fluorescence was visualized with Zeiss 510 LSM-meta confocal microscope and 20x objective. DAB F4/80 staining was visualized with Nikon FN1 microscope and same power objective.

Another data set has as its system RAW-Blue cells. As to the kind of experiment: Nanoparticle cell-surface binding/uptake in RAW-Blue cells (rhodamine fluorescence). Conditions: 1 and 10 µM nanoparticles with 1% rhodamine; 550/620 nm. It is filed as cell-based, mouse. The procedure:
A schematic representation of nanoparticle screening is depicted in Supplementary Figure S4. Briefly, RAW-Blue NFkB reporter cells were cultured as per the manufacturer's recommendations. Cells were seeded and cultured overnight in black opaque 96-well plates with a clear bottom at 50,000 per well. Cells were then treated with 1 and 10 µM of nanoparticles containing 1% rhodamine and positive and negative controls (see below) for 30 min on ice followed by washing steps with cold PBS. Next, lipopolysaccharide (LPS) was added at 100 ng/mL and incubated for 6 h at 37 °C, following which the cells were washed again and incubated for 18 h at 37 °C in fresh medium. Next, 20 µL of supernatant was collected and assayed using SEAP detection reagent in a separate clear bottom 96-well plate as per Invivogen instructions (http://www.invivogen.com). Absorbance at OD 650 nm was recorded and was indicative of NFkB activation. In parallel, cells in the opaque plate were washed again and fluorescence was read at 550 nm excitation and 620 nm emission. This signal from rhodamine was indicative of nanoparticle uptake. […] All analysis was performed using Molecular Devices i3 multi-mode plate reader and SoftMax Pro software version 6.2 (Molecular Devices).

The next data set deals with TNFɑ. As to the kind of experiment: TNFɑ release, AlphaLISA. It is filed as cell-based, mouse. Conditions: inflammasome experiment supernatants, 4 experiments. The procedure: Cytokines were analyzed by EVE Technologies (https://www.evetechnologies.com) using the Luminex 31-Plex kit. Cell culture supernatants were diluted twice with PBS and provided in biological triplicates to EVE Technologies via overnight shipment in dry ice. Individual IL-1β and TNFɑ assays were performed using Perkin Elmer AlphaLISA kits, as per Supplementary Table S1 and vendor instructions.
BMDMs or J774 cells were plated in 48-well plates at 2 x 10^5 per well. Next day, the medium was changed to Opti-MEM (100 μL per well) without serum and the cells were allowed to equilibrate for 3 h. Next, the cells were pretreated with the indicated concentrations of nanoparticles or controls for 3 h followed by the addition of LPS to some wells to the final LPS concentration of 50 ng/mL. LPS priming continued for another 2 h, following which DMSO (vehicle), Nigericin (5 μM) or adenosine triphosphate (ATP) (1 mM) were added to some wells. Cells were incubated for an additional 30 min and cell culture supernatants were collected on ice. Cells were washed with cold PBS once and lysed/processed as described in immunoblotting section. The supernatants (90 μL) were mixed with 10 μL of 10x SDS loading buffer (10% SDS, 10% Ficoll 400, 0.5 M Tris pH 6.8, 0.5 M DTT, and 0.001% bromophenol blue) and heat-denatured as described in the immunoblotting section. […]

The subject of data set [3] is BMDMs. As to the kind of experiment: GSH/GSSG assay in LPS-primed BMDMs. It is filed as cell-based, mouse. Conditions: LPS-primed (100 ng/mL) BMDMs, 5 µM CCTV vs vehicle, 8 experiments.
Method: GSH /GSSG, lactate dehydrogenase (LDH) and DCFDA assays were performed according to the manufacturer's instructions.

Turning to CCTV, in the data set on recombinant CCR2 protein, the “binding to immobilized CCR2” value is reported as “bound to immobilized recombinant receptor protein in a dose dependent manner; also recorded: significant, dose-dependent binding”. In addition, in the data set with RAW 264.7 cells, the “Il1b mRNA expression” value was “significantly downregulated”, the “Il6 mRNA expression” value is listed as “significantly downregulated”, the “Nos2 mRNA expression” value is reported as “significantly downregulated” and the “Tnf mRNA expression” value is given as “unaffected”. Moreover, the actin polymerization entry in the data set on BMDMs [1] was “significantly inhibited actin polymerization”. Further, in data set [2], the “co-staining with F4/80 in plaque” value is “co-stained with CCTV”. Further, the cell-surface binding result in the data set on RAW-Blue cells is “high cell-surface binding”. In the data set on TNFɑ, the TNFɑ release result is given as “completely unaffected”. For the same substance, in the data set on BMDMs [3], the GSH levels result was “unable to restore GSH levels; also recorded: unaffected” and the GSSG levels result is recorded as “unable to restore GSH levels or reduce GSSG; also recorded: unaffected”.

These data come from paper PMC6838142, “Nano-Antagonist Alleviates Inflammation and Allows for MRI of Atherosclerosis” (Nanotheranostics, 2019).
